Read-outs that look alike come from different tables or passages of the source.
Biological target: T1, LmjIPCS (inositol phosphorylceramide synthase from L. major) (Leishmania major, UniProt E9AFX2)
T1 sequence (E9AFX2 1-338): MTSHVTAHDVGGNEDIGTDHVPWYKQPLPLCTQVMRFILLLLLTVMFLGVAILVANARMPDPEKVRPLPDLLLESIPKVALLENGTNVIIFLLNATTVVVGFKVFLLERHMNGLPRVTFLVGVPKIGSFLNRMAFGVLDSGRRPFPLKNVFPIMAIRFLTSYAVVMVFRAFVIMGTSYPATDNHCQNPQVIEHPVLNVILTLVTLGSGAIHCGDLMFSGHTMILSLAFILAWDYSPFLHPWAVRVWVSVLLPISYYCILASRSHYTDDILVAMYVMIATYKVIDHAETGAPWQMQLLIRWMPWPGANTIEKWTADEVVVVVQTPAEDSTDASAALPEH
Assay: biochemical
Assay type: biochemical
Set-up: inhibition: dose or concentration left out as unconfirmed
Settings: for inhibition at 20000 µM: read-out: 20mM inhibition LmjIPCS; for inhibition: read-out: inhibition LmjIPCS

[1] = NINDS set screen, single concentration printed as 20mM
[2] = screening of NINDS set, sheet Screen 1

C=C(C)[C@@H]1CC[C@]2(C(=O)O)CC[C@]3(C)[C@H](CC[C@@H]4[C@@]5(C)CC[C@H](O)C(C)(C)[C@@H]5CC[C@]43C)[C@@H]12 [BETULINIC ACID]
inhibition at 20000 µM: 21%

CC(C)(Oc1ccc(CCNC(=O)c2ccc(Cl)cc2)cc1)C(=O)O [BEZAFIBRATE]
inhibition: 11%

c1ccc(-c2ccc(C(c3ccccc3)n3ccnc3)cc2)cc1 (stereo not shown) [BIFONAZOLE]
20mM inhibition LmjIPCS: 52%

CC(=O)Oc1ccc(C(c2ccc(OC(C)=O)cc2)c2ccccn2)cc1 [BISACODYL]
20mM inhibition LmjIPCS: 48%

Oc1c(Cl)cc(Cl)cc1Sc1cc(Cl)cc(Cl)c1O [BITHIONOL]
20mM inhibition LmjIPCS: 41%

O=C(O)CC[N+](=O)[O-] [BOVINOCIDIN]
20mM inhibition LmjIPCS: 21%

CC[N+](C)(C)Cc1ccccc1Br [BRETYLIUM]
inhibition: 14%

CN(Cc1cc(Br)cc(Br)c1N)C1CCCCC1 [BROMHEXINE]
20mM inhibition LmjIPCS [1]: 53%

CCN(CC)CCNC(=O)c1cc(Br)c(N)cc1OC [BROMOPRIDE]
inhibition: 17%

CN(C)CCC(c1ccc(Br)cc1)c1ccccn1 (stereo not shown) [BROMPHENIRAMINE]
inhibition at 20000 µM: 14%

Oc1c(Br)cc(Br)c2cccnc12 [BROXYQUINOLINE]
20mM inhibition LmjIPCS: 61%

CCCC(=O)Nc1ncnc2c1ncn2[C@@H]1O[C@@H]2COP(=O)(O)O[C@H]2[C@H]1OC(=O)CCC [BUCLADESINE]
inhibition at 20000 µM: -1.88%

CCCCNc1cc(C(=O)O)cc(S(N)(=O)=O)c1Oc1ccccc1 [BUMETANIDE]
inhibition: 9%

CCCCN1CCCCC1C(=O)Nc1c(C)cccc1C (stereo not shown) [BUPIVACAINE]
inhibition [2]: 5.35%

CC(NC(C)(C)C)C(=O)c1cccc(Cl)c1 (stereo not shown) [BUPROPION]
inhibition: 29%

CS(=O)(=O)OCCCCOS(C)(=O)=O [BUSULFAN]
20mM inhibition LmjIPCS [1]: 44%

CCCCN(CCCC)CCCOC(=O)c1ccc(N)cc1 [BUTACAINE]
inhibition (NINDS set screen): 19%

CCCCOC(=O)c1ccc(N)cc1 [BUTAMBEN]
inhibition (NINDS set screen): 14%

O=C(O)CN(CC(=O)O)Cc1cc2c(cc1O)Oc1cc(O)c(CN(CC(=O)O)CC(=O)O)cc1C21OC(=O)c2ccccc21 [CALCEIN]
inhibition at 20000 µM: 0%

CC[C@@]1(O)C(=O)OCc2c1cc1n(c2=O)Cc2cc3ccccc3nc2-1 [CAMPTOTHECIN]
inhibition at 20000 µM: 1.2%

CCOc1nc2cccc(C(=O)OC(C)OC(=O)OC3CCCCC3)c2n1Cc1ccc(-c2ccccc2-c2nn[nH]n2)cc1 (stereo not shown) [CANDESARTAN CILEXTIL]
20mM inhibition LmjIPCS: 11%

C[C@]12CCC(=O)C=C1C=C[C@@H]1[C@@H]2CC[C@@]2(C)[C@H]1CC[C@@]2(O)CCC(=O)O [CANRENOIC ACID]
inhibition: 7%

C[C@]12CCC(=O)C=C1C=C[C@@H]1[C@@H]2CC[C@@]2(C)[C@H]1CC[C@@]21CCC(=O)O1 [CANRENONE]
inhibition at 20000 µM: 12%

CC1=C(/C=C/C(C)=C/C=C/C(C)=C/C=C/C=C(C)/C=C/C=C(C)/C=C/C(=O)[C@]2(C)C[C@@H](O)CC2(C)C)C(C)(C)C[C@H](O)C1 [CAPSANTHIN]
inhibition (NINDS set screen): 33%

C[C@H](CS)C(=O)N1CCC[C@H]1C(=O)O [CAPTOPRIL]
inhibition at 20000 µM: 1.19%

C[N+](C)(C)CCOC(N)=O [CARBACHOL]
20mM inhibition LmjIPCS [1]: 57%

COC(=O)N/N=C/c1c[n+]([O-])c2ccccc2[n+]1[O-] [CARBADOX]
inhibition (NINDS set screen): 12%

NC(=O)N1c2ccccc2C=Cc2ccccc21 [CARBAMAZEPINE]
20mM inhibition LmjIPCS: 50%

CC1(C)S[C@@H]2[C@H](NC(=O)C(C(=O)O)c3ccccc3)C(=O)N2[C@H]1C(=O)O (stereo partly shown) [CARBENICILLIN]
20mM inhibition LmjIPCS: 52%

CC1(C)[C@@H](OC(=O)CCC(=O)O)CC[C@]2(C)[C@H]3C(=O)C=C4[C@@H]5C[C@@](C)(C(=O)O)CC[C@]5(C)CC[C@@]4(C)[C@]3(C)CC[C@@H]12 [CARBENOXOLONE]
inhibition: 1.66%

CCN(CC)CCOCCOC(=O)C1(c2ccccc2)CCCC1 [CARBETAPENTANE]
20mM inhibition LmjIPCS: 51%

CCOC(=O)n1ccn(C)c1=S [CARBIMAZOLE]
inhibition: 12%

CN(C)CCOC(c1ccc(Cl)cc1)c1ccccn1 (stereo not shown) [CARBINOXAMINE]
20mM inhibition LmjIPCS [1]: 36%

N.N.O=C([O-])C1(C(=O)[O-])CCC1.[Pt+2] [CARBOPLATIN]
20mM inhibition LmjIPCS (NINDS set screen, compound at 20mM (so in the source)): 16%

CCCC(C)(COC(N)=O)COC(=O)NC(C)C (stereo not shown) [CARISOPRODOL]
20mM inhibition LmjIPCS: 52%

CCCCCCNC(=O)n1cc(F)c(=O)[nH]c1=O [CARMOFUR]
inhibition at 20000 µM: 14%

O=NN(CCCl)C(=O)NCCCl [CARMUSTINE]
inhibition at 20000 µM: 10%

C[N+](C)(C)CC(O)CC(=O)[O-] (stereo not shown) [CARNITINE]
inhibition: 15%

CC(C(=O)O)c1ccc2c(c1)[nH]c1ccc(Cl)cc12 (stereo not shown) [CARPROFEN]
inhibition [2]: 7%

N[C@@H](C(=O)N[C@@H]1C(=O)N2C(C(=O)O)=C(Cl)CS[C@H]12)c1ccccc1 [CEFACLOR]
inhibition: 10%

CC1=C(C(=O)O)N2C(=O)[C@@H](NC(=O)[C@H](N)c3ccc(O)cc3)[C@H]2SC1 [CEFADROXIL]
20mM inhibition LmjIPCS: 37%

Cn1nnnc1SCC1=C(C(=O)O)N2C(=O)[C@@H](NC(=O)[C@H](O)c3ccccc3)[C@H]2SC1 [CEFAMANDOLE]
inhibition at 20000 µM: 10%

Cc1nnc(SCC2=C(C(=O)O)N3C(=O)[C@@H](NC(=O)Cn4cnnn4)[C@H]3SC2)s1 [CEFAZOLIN]
20mM inhibition LmjIPCS: 35%

CO/N=C(\C(=O)N[C@@H]1C(=O)N2C(C(=O)OCOC(=O)C(C)(C)C)=C(/C=C\c3scnc3C)CS[C@H]12)c1csc(N)n1 [CEFDITORIN PIVOXIL]
20mM inhibition LmjIPCS: 10%

CO[C@@]1(NC(=O)CSCC#N)C(=O)N2C(C(=O)O)=C(CSc3nnnn3C)CS[C@@H]21 [CEFMETAZOLE]
inhibition at 20000 µM: 13%

CCN1CCN(C(=O)N[C@@H](C(=O)N[C@@H]2C(=O)N3C(C(=O)O)=C(CSc4nnnn4C)CS[C@H]23)c2ccc(O)cc2)C(=O)C1=O [CEFOPERAZONE]
inhibition at 20000 µM: 13%

CO/N=C(\C(=O)N[C@@H]1C(=O)N2C(C(=O)O)=C(COC(C)=O)CS[C@H]12)c1csc(N)n1 [CEFOTAXIME]
20mM inhibition LmjIPCS: 44%

CO[C@@]1(NC(=O)Cc2cccs2)C(=O)N2C(C(=O)O)=C(COC(N)=O)CS[C@@H]21 [CEFOXITIN]
inhibition at 20000 µM: 3.72%

Nc1nc(/C(=C/CC(=O)O)C(=O)N[C@@H]2C(=O)N3C(C(=O)O)=CCS[C@H]23)cs1 [CEFTIBUTEN]
inhibition at 20000 µM: 18%

CO/N=C(\C(=O)N[C@@H]1C(=O)N2C(C(=O)O)=C(CSc3nc(=O)c(=O)[nH]n3C)CS[C@H]12)c1csc(N)n1 [CEFTRIAXONE]
inhibition [2]: 5.34%

CO/N=C(\C(=O)N[C@@H]1C(=O)N2C(C(=O)O)=C(COC(N)=O)CS[C@H]12)c1ccco1 [CEFUROXIME]
inhibition (NINDS set screen): 16%

CC1=C(O)C(=O)C=C2C1=CC=C1[C@@]2(C)CC[C@@]2(C)[C@@H]3C[C@](C)(C(=O)O)CC[C@]3(C)CC[C@]12C [CELASTROL]
20mM inhibition LmjIPCS: 54%

Cc1ccc(-c2cc(C(F)(F)F)nn2-c2ccc(S(N)(=O)=O)cc2)cc1 [CELECOXIB]
20mM inhibition LmjIPCS: 51%

CC1=C(C(=O)O)N2C(=O)[C@@H](NC(=O)[C@H](N)c3ccccc3)[C@H]2SC1 [CEPHALEXIN]
inhibition at 20000 µM: 5.26%

O=C(Cc1cccs1)N[C@@H]1C(=O)N2C(C(=O)[O-])=C(C[n+]3ccccc3)CS[C@H]12 [CEPHALORIDINE]
inhibition at 20000 µM: 22%

CC(=O)OCC1=C(C(=O)O)N2C(=O)[C@@H](NC(=O)Cc3cccs3)[C@H]2SC1 [CEPHALOTHIN]
20mM inhibition LmjIPCS: 55%

CC(=O)OCC1=C(C(=O)O)N2C(=O)[C@@H](NC(=O)CSc3ccncc3)[C@H]2SC1 [CEPHAPIRIN]
20mM inhibition LmjIPCS: 47%

COc1ccc2cc1Oc1ccc(cc1)C[C@H]1c3c(cc4c(c3Oc3cc5c(cc3OC)CCN(C)[C@@H]5C2)OCO4)CCN1C [CEPHARANTHINE]
20mM inhibition LmjIPCS: 59%

CC1=C(C(=O)O)N2C(=O)[C@@H](NC(=O)[C@H](N)C3=CCC=CC3)[C@H]2SC1 [CEPHRADINE]
20mM inhibition LmjIPCS: 40%

C/C=C(/C)C(=O)O[C@H]1CC[C@@]2(C)[C@@H]3CC[C@H]4[C@]5(O)C[C@H](O)[C@@]6(O)[C@@H](CN7C[C@@H](C)CC[C@H]7[C@@]6(C)O)[C@]5(O)C[C@@]42O[C@]13O [CEVADINE]
inhibition at 20000 µM: 10%

O=C(CCCCCCCCCCCCC1CCCC1)Nc1ccc(S(=O)(=O)c2ccc(NC(=O)CCCCCCCCCCCCC3CCCC3)cc2)cc1 [CHAULMOSULFONE]
inhibition (NINDS set screen): 32%

O=C1C(Cl)=C(Cl)C(=O)C(Cl)=C1Cl [CHLORANIL]
inhibition at 20000 µM: 19%

CC(=O)O[C@]1(C(C)=O)CC[C@H]2[C@@H]3C=C(Cl)C4=CC(=O)CC[C@]4(C)[C@H]3CC[C@@]21C [CHLORMADINONE ACETATE]
inhibition at 20000 µM: 13%

CN1C(=O)CCS(=O)(=O)C1c1ccc(Cl)cc1 (stereo not shown) [CHLORMEZANONE]
inhibition at 20000 µM: -1.07%

CC(=O)Oc1ccc(Cl)c2cccnc12 [CHLOROACETOXYQUINOLINE]
inhibition at 20000 µM: 19%

Cc1cc(O)ccc1Cl [CHLOROCRESOL]
20mM inhibition LmjIPCS: 49%

[H]/N=C(\N/C(=N/[H])Nc1ccc(Cl)cc1)NC(C)C [CHLOROGUANIDE]
inhibition (NINDS set screen): 28%

CCN(CC)CCCC(C)Nc1ccnc2cc(Cl)ccc12 (stereo not shown) [CHLOROQUINE]
20mM inhibition LmjIPCS: 38%

NS(=O)(=O)c1cc2c(cc1Cl)N=CNS2(=O)=O [CHLOROTHIAZIDE]
20mM inhibition LmjIPCS: 51%

COc1ccc(C(Cl)=C(c2ccc(OC)cc2)c2ccc(OC)cc2)cc1 [CHLOROTRIANISENE]
20mM inhibition LmjIPCS [1]: 65%

Oc1c(Cl)cc(Cl)c2cccnc12 [CHLOROXINE]
20mM inhibition LmjIPCS: 37%

Cc1cc(O)cc(C)c1Cl [CHLOROXYLENOL]
20mM inhibition LmjIPCS: 53%

CN(C)CCC(c1ccc(Cl)cc1)c1ccccn1 (stereo not shown) [CHLORPHENIRAMINE]
20mM inhibition LmjIPCS: 68%

Source: PMC7802075 (ACS Infectious Diseases, 2020)
